From ChEMBL document CHEMBL1141885, “N1-arylsulfonyl-3-(1,2,3,6-tetrahydropyridin-4-yl)-1H-indole derivatives are potent and selective 5-HT6 receptor antagonists” (Bioorg Med Chem Lett, 2005) come the findings set out here.

The structures appear in SMILES notation.

The target in one assay is D(3) dopamine receptor (Homo sapiens, UniProt P35462). As to the kind of experiment: Binding affinity against human cloned Dopamine receptor D3 stably expressed in CHO-K1 cells using [3H]spiperone. The assay is classed as cell-based.
Sequence of D(3) dopamine receptor (P35462 whole entry): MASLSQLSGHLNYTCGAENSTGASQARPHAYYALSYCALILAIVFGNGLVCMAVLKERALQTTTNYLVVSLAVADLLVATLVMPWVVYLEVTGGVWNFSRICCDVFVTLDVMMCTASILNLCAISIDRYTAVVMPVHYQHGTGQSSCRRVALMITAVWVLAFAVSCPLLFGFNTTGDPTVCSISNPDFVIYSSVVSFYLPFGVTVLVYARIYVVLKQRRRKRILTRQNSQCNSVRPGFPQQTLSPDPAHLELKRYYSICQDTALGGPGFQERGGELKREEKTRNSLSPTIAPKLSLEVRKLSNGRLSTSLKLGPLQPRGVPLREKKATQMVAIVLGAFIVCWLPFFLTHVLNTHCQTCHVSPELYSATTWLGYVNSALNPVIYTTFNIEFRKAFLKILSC
The target in another assay is T1, D(4) dopamine receptor (Homo sapiens, UniProt P21917).
T1 sequence (P21917 whole entry): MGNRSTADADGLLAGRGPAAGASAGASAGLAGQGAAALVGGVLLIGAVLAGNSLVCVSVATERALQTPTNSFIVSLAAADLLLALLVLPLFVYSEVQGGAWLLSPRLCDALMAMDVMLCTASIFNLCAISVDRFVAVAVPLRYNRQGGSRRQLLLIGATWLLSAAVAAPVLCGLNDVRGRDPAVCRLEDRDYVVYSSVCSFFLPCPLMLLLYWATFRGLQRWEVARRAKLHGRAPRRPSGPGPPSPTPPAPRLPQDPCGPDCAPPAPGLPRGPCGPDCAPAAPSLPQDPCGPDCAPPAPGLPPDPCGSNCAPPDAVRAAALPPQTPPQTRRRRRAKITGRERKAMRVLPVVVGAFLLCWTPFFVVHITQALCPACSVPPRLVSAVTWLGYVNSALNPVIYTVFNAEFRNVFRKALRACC
Kind of assay: Binding affinity against human cloned Dopamine receptor D4 stably expressed in CHO-K1 cells using [3H]spiperone. The assay is classed as cell-based.

The target of assay [1] is T2, 5-hydroxytryptamine receptor 6 (Homo sapiens, UniProt P50406). As to the kind of experiment: Binding affinity against cloned human 5-hydroxytryptamine 6 receptor expressed in HeLa cells using [3H]LSD. The assay is classed as cell-based.
T2 sequence (P50406 whole entry): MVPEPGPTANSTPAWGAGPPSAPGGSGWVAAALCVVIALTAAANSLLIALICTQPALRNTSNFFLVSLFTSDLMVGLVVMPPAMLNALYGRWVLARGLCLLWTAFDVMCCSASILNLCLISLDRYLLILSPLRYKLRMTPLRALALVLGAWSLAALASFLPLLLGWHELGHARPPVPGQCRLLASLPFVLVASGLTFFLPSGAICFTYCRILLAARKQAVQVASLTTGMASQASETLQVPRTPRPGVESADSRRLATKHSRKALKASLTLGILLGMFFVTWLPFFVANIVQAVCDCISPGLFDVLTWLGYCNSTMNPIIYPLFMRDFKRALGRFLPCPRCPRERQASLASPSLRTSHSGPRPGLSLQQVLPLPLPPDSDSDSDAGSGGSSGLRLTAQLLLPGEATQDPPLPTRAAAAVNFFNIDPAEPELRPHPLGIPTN
In assay [2] the target is T2, 5-hydroxytryptamine receptor 6. Kind of assay: Inhibitory concentration against 5-HT stimulated cAMP production in HeLa cells stably transfected with human 5-HT6 receptor. The assay is classed as functional, cell-based. On the technique in general: Cyclic AMP is a second messenger, typically raised through Gs and lowered through Gi signalling.
Assay [3] addresses 5-hydroxytryptamine receptor 1B (Homo sapiens) (UniProt P28222). Kind of assay: Inhibition of [3H]-5-HT binding to human cloned 5-hydroxytryptamine 1B receptor stably expressed in CHO cells at 1 uM. The assay is classed as cell-based.
In assay [4] the target is 5-hydroxytryptamine receptor 1D (Homo sapiens) (UniProt P28221). As to the kind of experiment: Inhibition of [3H]5-HT binding to human cloned 5-hydroxytryptamine 1D receptor stably expressed in CHO cells at 1 uM. Type of assay: cell-based.
Sequence of 5-hydroxytryptamine receptor 1D (Homo sapiens) (P28221 whole entry): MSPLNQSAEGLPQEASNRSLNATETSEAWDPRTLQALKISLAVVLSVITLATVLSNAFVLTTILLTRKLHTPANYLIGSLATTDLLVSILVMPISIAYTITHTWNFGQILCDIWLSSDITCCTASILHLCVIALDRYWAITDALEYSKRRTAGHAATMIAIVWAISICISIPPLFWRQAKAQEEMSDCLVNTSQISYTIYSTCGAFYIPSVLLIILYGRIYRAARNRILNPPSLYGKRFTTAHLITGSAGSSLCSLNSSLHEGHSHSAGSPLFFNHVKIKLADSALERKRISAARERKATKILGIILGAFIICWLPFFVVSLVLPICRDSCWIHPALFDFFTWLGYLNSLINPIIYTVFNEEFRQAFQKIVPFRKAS
Assay [5] deals with T3, 5-hydroxytryptamine receptor 1F (Homo sapiens) (UniProt P30939).
T3 sequence (whole entry): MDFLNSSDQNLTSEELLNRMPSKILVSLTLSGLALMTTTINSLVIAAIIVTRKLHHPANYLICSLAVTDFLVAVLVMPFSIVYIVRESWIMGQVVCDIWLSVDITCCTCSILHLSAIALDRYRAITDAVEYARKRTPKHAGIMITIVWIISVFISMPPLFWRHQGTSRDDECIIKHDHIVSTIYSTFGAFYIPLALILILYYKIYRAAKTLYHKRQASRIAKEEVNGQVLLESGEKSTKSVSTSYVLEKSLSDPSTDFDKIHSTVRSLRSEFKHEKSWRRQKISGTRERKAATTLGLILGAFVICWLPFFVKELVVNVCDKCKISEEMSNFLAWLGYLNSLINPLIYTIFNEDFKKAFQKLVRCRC
As to the kind of experiment: Inhibition of [3H]-5-HT binding to human cloned 5-hydroxytryptamine 1F receptor stably expressed in CHO cells at 1 uM. Type of assay: cell-based.

Assay [6] addresses 5-hydroxytryptamine receptor 2A (Homo sapiens, UniProt P28223). Kind of assay: Binding affinity against human cloned 5-hydroxytryptamine 2A receptor stably expressed in CHO cells using [125I]DOI. Type of assay: cell-based.
For assay [7], the target named is T4, 5-hydroxytryptamine receptor 2C (Homo sapiens, UniProt P28335).
T4 sequence (P28335 whole entry): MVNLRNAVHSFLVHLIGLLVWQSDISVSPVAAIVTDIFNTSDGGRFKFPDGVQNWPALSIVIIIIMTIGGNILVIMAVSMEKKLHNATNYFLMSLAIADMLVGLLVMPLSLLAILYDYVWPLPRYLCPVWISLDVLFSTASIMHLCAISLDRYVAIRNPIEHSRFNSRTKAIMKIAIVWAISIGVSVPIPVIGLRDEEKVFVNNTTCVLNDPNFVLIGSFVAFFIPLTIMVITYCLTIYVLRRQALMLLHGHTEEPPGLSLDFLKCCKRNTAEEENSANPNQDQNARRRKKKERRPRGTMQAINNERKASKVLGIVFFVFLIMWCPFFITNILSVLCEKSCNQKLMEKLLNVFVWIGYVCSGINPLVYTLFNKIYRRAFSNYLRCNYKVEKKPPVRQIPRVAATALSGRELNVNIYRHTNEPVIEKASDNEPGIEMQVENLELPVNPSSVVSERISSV
As to the kind of experiment: Binding affinity against human cloned 5-hydroxytryptamine 2C receptor stably expressed in CHO cells using [3H]-5-HT. The assay is classed as cell-based.

The target in another assay is D(2) dopamine receptor (Homo sapiens, UniProt P14416). As to the kind of experiment: Binding affinity against human cloned Dopamine receptor D2 stably expressed in CHO-K1 cells using [3H]spiperone. The assay is classed as cell-based.
Sequence of D(2) dopamine receptor (P14416 whole entry): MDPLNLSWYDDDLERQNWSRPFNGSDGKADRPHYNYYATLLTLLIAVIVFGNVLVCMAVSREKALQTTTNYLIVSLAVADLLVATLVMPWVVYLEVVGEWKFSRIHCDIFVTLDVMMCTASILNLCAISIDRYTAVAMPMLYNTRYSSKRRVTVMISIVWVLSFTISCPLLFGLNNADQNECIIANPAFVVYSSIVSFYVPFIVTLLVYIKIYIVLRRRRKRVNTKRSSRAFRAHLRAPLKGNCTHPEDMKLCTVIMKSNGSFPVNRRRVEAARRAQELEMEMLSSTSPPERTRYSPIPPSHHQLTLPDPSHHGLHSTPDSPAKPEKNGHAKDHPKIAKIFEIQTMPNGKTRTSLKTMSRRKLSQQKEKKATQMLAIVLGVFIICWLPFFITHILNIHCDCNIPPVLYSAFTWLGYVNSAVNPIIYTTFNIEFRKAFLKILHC
Assay [8] addresses T5, 5-hydroxytryptamine receptor 1A (Homo sapiens, UniProt P08908).
T5 sequence (P08908 whole entry): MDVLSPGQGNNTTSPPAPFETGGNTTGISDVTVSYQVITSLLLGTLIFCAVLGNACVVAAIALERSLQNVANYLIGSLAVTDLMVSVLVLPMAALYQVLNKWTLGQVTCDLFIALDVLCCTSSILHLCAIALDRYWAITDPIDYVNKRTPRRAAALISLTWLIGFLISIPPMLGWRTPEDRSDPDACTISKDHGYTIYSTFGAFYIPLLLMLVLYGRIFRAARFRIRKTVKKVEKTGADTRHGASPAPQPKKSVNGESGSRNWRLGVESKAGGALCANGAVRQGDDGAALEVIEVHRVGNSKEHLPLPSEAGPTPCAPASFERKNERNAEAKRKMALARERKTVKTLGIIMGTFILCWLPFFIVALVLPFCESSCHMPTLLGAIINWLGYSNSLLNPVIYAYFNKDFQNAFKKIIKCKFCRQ
As to the kind of experiment: Binding affinity against human cloned 5-hydroxytryptamine 1A receptor stably expressed in CHO cells using DPAT.

Sequence of 5-hydroxytryptamine receptor 1B (Homo sapiens) (P28222 whole entry): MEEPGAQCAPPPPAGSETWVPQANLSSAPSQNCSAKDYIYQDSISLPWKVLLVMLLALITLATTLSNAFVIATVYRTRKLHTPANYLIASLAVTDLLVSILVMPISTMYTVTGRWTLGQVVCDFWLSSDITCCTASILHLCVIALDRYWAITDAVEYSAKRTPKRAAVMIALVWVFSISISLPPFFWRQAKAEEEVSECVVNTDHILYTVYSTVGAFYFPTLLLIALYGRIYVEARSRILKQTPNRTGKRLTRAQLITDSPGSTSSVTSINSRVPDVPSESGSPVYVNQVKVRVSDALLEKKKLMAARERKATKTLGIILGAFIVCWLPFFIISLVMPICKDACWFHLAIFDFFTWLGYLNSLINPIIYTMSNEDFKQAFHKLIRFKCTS
Sequence of 5-hydroxytryptamine receptor 2A (P28223 whole entry): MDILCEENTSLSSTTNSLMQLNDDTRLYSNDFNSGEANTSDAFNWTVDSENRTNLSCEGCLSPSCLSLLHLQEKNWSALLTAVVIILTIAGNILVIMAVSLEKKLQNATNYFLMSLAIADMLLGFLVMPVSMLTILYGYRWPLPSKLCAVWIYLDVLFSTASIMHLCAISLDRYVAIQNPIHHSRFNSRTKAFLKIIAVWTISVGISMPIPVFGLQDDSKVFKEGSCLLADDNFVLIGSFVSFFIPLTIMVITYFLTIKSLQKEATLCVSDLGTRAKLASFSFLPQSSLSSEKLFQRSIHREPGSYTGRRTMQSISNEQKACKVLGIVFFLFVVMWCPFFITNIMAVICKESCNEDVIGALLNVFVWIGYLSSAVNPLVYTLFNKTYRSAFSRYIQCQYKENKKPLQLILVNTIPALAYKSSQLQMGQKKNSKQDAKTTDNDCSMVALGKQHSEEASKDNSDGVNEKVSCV

In general, Ki refers to a dissociation constant, usually derived from enzyme kinetics or from competition with a known ligand. High values mean lower affinity, low ones higher affinity. The IC50 is the concentration that gives 50% inhibition. In general, inhibition refers to the change of the read-out against control, counted positive when it falls. Lower therefore signals a weak effect. Turning to `O=S(=O)(c1ccccc1Cl)n1cc(C2=CCNCC2)c2ccccc21`, the Ki at D(3) dopamine receptor was 627 nM; at D(4) dopamine receptor, over 5000 nM; in assay [1] it was 0.4 nM; in assay [6] it was 599 nM; in assay [7], 383 nM; on D(2) dopamine receptor, over 2000 nM. In assay [8], this molecule gave a Ki of over 2000 nM. In [2], this molecule returned a 50% inhibitory concentration (IC50) of 8.8 nM. Besides, the values for the inhibition in assay [3], in [4] and in [5] were 12%, 6% and 2%, respectively.
